Test results from PMC3399817 (PLoS ONE, 2012).

Tests used:
B cell migration = test system: B cell migration; design: method as in PMID 21123826; details: mice ref 15; cited from earlier work
[1] = test system: antigen-induced airway inflammation; design: method as in PMID 12766258; details: rats ref 14; cited from earlier work
NEK1 = biological target: T1, NEK1 (Homo sapiens, UniProt Q96PY6); assay: SelectScreen in vitro kinase IC50; assay type: biochemical
T1 construct: purchased Ambit KINOMEscan (DiscoverX)
T1 sequence (Q96PY6 1-1258): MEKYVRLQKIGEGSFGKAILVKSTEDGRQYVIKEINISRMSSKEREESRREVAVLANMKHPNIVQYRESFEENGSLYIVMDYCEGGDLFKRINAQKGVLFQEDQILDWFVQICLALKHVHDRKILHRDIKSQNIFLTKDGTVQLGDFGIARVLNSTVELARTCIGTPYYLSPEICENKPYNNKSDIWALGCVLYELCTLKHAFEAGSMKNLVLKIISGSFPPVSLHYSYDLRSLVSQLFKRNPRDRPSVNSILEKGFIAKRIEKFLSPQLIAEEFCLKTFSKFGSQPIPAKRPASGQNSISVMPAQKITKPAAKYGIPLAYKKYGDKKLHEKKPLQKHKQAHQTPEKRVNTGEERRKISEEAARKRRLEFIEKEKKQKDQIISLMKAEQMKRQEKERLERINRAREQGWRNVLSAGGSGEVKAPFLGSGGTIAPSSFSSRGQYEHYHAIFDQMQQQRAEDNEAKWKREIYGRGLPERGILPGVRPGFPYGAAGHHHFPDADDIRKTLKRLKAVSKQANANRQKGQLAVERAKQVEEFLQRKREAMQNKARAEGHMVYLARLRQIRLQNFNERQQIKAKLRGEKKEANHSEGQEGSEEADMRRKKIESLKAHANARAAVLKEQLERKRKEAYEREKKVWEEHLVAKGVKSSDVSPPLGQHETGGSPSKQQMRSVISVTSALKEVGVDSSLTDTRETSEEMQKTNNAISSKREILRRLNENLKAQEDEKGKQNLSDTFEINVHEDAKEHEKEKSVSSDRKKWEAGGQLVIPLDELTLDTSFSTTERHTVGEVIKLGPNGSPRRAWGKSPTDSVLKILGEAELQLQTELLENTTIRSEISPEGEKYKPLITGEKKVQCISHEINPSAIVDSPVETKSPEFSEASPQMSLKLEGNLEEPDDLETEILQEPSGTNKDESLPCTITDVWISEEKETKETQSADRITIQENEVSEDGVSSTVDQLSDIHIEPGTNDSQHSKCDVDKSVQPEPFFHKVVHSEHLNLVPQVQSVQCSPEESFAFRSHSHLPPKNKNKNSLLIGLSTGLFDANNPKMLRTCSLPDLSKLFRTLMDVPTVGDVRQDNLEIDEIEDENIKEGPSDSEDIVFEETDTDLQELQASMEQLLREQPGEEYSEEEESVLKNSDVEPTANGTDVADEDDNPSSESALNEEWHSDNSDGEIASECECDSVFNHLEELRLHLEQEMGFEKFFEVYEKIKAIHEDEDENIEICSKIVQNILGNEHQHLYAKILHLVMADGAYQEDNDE
Protocol: (§1) First, we used Ambit's KINOMEscan™ technology to identify those kinases that are inhibited for substrate binding by the compounds, all assayed at 1 μM. Second, we used Invitrogen's SelectScreen® Biochemical Kinase Profiling Service to determine the in vitro IC50s for the compounds against specific kinases.

HIPK1 = biological target: T2, HIPK1 (Homo sapiens, UniProt Q86Z02); assay: SelectScreen in vitro kinase IC50; assay type: biochemical
T2 construct: purchased Ambit KINOMEscan (DiscoverX)
T2 sequence (Q86Z02 whole entry): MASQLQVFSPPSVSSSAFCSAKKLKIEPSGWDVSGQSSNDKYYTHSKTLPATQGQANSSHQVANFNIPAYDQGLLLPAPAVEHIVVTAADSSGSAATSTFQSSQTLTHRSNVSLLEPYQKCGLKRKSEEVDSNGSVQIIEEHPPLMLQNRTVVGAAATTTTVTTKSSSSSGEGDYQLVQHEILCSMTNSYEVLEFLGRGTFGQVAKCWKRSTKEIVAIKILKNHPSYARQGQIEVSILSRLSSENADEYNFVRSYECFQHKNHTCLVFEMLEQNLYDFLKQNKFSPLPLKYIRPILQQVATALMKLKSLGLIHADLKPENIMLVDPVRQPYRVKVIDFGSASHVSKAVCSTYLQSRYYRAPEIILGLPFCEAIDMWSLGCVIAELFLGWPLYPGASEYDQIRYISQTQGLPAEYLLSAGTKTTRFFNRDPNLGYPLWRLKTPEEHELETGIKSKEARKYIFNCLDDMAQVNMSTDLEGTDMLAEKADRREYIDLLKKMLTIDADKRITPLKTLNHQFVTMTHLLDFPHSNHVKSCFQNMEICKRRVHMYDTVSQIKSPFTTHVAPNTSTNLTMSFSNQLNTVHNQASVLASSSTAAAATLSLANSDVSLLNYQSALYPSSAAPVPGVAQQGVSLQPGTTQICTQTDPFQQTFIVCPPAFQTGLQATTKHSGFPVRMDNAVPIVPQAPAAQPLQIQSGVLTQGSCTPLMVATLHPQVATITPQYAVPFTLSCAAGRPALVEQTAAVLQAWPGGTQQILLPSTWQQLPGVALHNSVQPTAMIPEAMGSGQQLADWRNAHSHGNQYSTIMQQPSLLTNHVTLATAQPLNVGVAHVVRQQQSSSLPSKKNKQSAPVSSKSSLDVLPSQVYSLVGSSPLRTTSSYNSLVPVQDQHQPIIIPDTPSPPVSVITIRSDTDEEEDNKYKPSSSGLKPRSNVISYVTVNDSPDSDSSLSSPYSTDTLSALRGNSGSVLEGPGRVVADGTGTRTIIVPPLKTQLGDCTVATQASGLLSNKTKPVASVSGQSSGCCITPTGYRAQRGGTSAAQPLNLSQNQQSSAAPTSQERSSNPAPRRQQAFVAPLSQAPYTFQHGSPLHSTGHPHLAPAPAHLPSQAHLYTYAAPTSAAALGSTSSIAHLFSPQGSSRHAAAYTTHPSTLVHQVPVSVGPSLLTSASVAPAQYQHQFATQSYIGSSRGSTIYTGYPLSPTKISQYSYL
Protocol: as §1

PKNB(M.tuberculosis) = PKNB(M.tuberculosis) (Mycobacterium tuberculosis, UniProt P9WI81); details: 1 uM
Sequence of PKNB(M.tuberculosis) (P9WI81 whole entry): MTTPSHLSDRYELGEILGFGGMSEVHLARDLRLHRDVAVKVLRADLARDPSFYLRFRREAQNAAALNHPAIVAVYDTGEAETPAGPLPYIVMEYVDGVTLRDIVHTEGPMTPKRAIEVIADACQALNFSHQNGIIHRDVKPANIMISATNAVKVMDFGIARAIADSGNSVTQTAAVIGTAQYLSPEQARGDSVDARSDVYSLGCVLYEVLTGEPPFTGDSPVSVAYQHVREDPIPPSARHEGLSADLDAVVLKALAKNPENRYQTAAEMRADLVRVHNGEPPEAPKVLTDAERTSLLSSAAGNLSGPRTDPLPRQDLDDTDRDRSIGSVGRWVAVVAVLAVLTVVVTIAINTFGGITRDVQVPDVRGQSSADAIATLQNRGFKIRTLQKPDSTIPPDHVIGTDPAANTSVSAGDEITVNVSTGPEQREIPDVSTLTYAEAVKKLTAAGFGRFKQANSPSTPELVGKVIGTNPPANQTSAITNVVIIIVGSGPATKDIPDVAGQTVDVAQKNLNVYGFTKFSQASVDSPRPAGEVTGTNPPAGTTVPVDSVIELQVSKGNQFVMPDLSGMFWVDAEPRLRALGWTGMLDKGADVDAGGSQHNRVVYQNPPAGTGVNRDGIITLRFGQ
Protocol: as §1

CDC2L5 = CDC2L5 (Homo sapiens, UniProt Q14004); details: CDC2L5, 1 uM
Sequence of CDC2L5 (Q14004 whole entry): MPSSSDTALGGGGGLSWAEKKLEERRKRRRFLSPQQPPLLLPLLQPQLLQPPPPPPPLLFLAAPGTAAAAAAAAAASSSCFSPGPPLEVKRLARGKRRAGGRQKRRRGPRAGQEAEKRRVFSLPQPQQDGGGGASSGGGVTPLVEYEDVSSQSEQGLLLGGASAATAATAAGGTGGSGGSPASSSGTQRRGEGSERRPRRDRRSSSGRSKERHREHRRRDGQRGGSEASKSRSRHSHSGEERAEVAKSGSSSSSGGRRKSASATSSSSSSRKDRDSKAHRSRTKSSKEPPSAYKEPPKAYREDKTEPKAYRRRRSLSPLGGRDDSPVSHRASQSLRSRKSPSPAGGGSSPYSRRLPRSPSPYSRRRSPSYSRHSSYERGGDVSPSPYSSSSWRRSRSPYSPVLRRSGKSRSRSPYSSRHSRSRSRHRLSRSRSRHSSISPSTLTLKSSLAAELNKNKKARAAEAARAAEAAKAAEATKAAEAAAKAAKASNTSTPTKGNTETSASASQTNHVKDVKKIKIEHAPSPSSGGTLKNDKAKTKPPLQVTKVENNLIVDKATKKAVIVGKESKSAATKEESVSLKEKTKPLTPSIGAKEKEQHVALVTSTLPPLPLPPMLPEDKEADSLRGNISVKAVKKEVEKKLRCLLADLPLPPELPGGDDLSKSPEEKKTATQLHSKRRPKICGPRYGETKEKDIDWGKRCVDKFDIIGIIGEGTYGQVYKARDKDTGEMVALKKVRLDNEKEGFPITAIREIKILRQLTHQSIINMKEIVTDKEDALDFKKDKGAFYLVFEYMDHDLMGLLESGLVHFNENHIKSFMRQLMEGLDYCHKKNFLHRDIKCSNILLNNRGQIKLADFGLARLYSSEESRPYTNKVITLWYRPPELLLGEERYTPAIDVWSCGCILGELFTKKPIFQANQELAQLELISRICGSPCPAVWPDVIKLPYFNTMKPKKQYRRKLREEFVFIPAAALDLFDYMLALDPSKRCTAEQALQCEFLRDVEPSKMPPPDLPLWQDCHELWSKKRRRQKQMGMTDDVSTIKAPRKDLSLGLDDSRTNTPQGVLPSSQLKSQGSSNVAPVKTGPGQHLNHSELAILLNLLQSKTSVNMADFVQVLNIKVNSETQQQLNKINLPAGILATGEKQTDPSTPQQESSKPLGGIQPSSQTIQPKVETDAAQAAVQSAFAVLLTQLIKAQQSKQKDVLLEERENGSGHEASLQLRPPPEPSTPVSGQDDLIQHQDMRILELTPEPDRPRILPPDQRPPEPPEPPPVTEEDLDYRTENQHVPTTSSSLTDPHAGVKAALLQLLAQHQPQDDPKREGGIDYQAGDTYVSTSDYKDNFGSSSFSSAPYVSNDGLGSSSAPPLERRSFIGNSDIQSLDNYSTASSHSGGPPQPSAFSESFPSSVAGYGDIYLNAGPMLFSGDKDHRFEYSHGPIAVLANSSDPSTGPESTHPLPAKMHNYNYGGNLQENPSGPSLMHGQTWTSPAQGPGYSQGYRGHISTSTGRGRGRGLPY
Protocol: as §1

MAP4K2 = biological target: T3, MAP4K2 (Homo sapiens, UniProt Q12851); assay: SelectScreen in vitro kinase IC50; assay type: biochemical; details: Fig. S5
T3 construct: purchased Ambit KINOMEscan (DiscoverX)
T3 sequence (Q12851 1-820): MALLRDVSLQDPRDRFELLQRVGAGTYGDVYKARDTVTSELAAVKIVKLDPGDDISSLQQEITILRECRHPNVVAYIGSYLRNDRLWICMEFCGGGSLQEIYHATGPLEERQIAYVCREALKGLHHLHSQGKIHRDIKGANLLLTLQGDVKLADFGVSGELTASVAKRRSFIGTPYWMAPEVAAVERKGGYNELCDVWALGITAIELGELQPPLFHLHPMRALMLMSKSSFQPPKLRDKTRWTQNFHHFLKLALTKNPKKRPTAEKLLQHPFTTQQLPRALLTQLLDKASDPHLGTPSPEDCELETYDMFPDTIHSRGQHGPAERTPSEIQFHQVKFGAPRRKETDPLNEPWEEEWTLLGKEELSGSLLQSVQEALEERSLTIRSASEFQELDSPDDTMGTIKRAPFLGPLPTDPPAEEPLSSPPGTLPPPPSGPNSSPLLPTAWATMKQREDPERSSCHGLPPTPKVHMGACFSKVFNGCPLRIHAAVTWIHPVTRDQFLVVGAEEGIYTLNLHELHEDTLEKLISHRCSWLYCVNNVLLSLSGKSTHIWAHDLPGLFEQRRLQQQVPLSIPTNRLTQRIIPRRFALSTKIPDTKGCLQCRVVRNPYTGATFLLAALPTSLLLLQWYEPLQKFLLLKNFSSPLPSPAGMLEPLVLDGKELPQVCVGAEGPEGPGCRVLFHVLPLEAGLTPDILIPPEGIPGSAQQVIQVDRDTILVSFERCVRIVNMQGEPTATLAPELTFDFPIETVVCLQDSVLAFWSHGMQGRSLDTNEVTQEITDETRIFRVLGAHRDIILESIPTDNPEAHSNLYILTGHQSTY
Protocol: as §1

COc1ccc(-c2cc3nccn3c(Nc3ncccc3C(N)=O)n2)cc1OC.Cl.Cl [BAY61-3606, 2-[7-(3,4-dimethoxyphenyl)-imidazo [1,2-c]pyrimidin-5-ylamino] nicotinamide dihydrochloride, reference compound]
B cell migration (B cell migration): suppresses | antigen-induced airway inflammation [1]: suppresses | IC50 (NEK1): 159 nM | IC50 (HIPK1): 4.24 µM

COc1ccccc1Nc1nc(-c2ccc(OC)c(OC)c2)cc2nccn12 [BAY derivative 6]
% binding compared to no inhibitor control (PKNB(M.tuberculosis)): 99% | % binding compared to no inhibitor control (CDC2L5): 88% | in vitro kinase activity of MAP4K2, inhibition (MAP4K2): lost its ability to effectively inhibit the in vitro kinase activity of MAP4K2
